Experimental data taken from patent publication US20160030476A1, “Compositions, Methods And Devices For Promoting Wound Healing And Reducing Infection” (IASIS MOLECULAR SCIENCES, priority 2013, published 2016).

Experiments:
Assay in all cases: Therapeutic index (IC50 fibroblasts / MIC90 in broth)
[1] = test system: MRSA; format: cell-based, Staphylococcus aureus
Description: (§1) The OD600 nm levels were monitored until OD600 nm of untreated control reached an OD600 nm of approximately 1.0.
(§2) Growth and Viability assays (5,000 and 10,000 cells/well respectively) were set up with human neonatal fibroblasts in sterile tissue culture treated 96 well plates in DMEM (Invitrogen #11995) supplemented with 10% fetal calf serum (Invitrogen #10437-028) 1% Antibiotic-Antimycotic (Invitrogen #15240-062). (Incubator set at 37 C and 5% CO2).
(§3) 10 μl of prepared MTS reagent (Promega # G5430) was added to the wells and absorbance at 490 nm was read once color has stabilized (1-4 hours).
(§4) The therapeutic index was calculated as the IC50/MIC90.

[2] = test system: multi-drug resistant Pseudomonas aeruginosa (Pseudo); format: cell-based
Description: as §1, §2, §3, §4

[3] = test system: multi-drug resistant Klebsiella pneumonia (Kleb); format: cell-based
Description: as §1, §2, §3, §4

[4] = test system: multi-drug resistant Acinetobacter baumannii (AcBc); format: cell-based
Description: as §1, §2, §3, §4

N[C@@H](CCC(=O)N[C@@H](CS)C(=O)NCC(=O)O)C(=O)O.[Ag] [GSH-Ag, glutathione silver]
MRSA T.I. [1]: 1.5 | Pseudo T.I. [2]: 2.9 | Kleb T.I. [3]: 1.4 | AcBc T.I. [4]: 2.9
